Tested on: pancreatic adenocarcinoma associated genes
Assay: TaqMan Array gene expression in MIAPaCa-2, normalized for GAPDH
Assay type: cell-based, Human
Details: Mia-PACA-2, 24 hs, CBD 3.8, MLT 200, AKBA 7.5 micrograms/ml
Protocol: Total RNA from untreated or CBD, MLT, AKBA alone and in combination treated cell lines was extracted using Rneasy Mini kit (Qiagen, Milan, Italy). One microgram of total RNA from each sample was subjected to reverse transcription in a total volume of 20 μL using the High-Capacity cDNA Archive Kit (Applied Biosystem, Foster City, […], USA) according to the instructions. cDNAs were analyzed by qRT-PCR performed using an IQ5 Multicolor Real time PCR Detection system. Quantitative real-time gene expression was performed with the TaqMan® Array Human Pancreatic Adenocarcinoma 96-well Plate, containing 92 assays to pancreatic adenocarcinoma associated genes and 4 assays to candidate endogenous control genes, was purchased (Thermo Fisher, Grand Island, NY, USA) and used to evaluate the treatments in modulating PDAC-related genes (Table 1). Measurement of different housekeeping genes (GAPDH; HPRT1; GUSB) on the samples was used to normalize mRNA content. The gene expression levels of treated cell lines were expressed as relative fold compared with untreated or vehicle-treated cells.
To elucidate the molecular events induced by CBD, MLT and AKBA alone and in combination, 92 genes involved in PDAC progression and aggressiveness were evaluated by Taqman Array. Both cell lines were treated with CBD, MLT and AKBA alone and in combination, and the molecular pathways of PDAC associated gene were evaluated.
Target mRNA levels were normalized for GAPDH expression.

[1] = normalized for GAPDH, Akt pathways
[2] = normalized for GAPDH, Akt-pathways
[3] = normalized for GAPDH, DNA repair
[4] = normalized for GAPDH, NfkB pathways
[5] = normalized for GAPDH, Ras pathways
[6] = normalized for GAPDH, TGF patways
[7] = normalized for GAPDH, TGF-patways
[8] = normalized for GAPDH, angiogenesis
[9] = normalized for GAPDH, apoptosis
[10] = normalized for GAPDH, cell cycle
[11] = normalized for GAPDH, inflammation
[12] = normalized for GAPDH, proliferation

## C=C(C)[C@@H]1CCC(C)=C[C@H]1c1c(O)cc(CCCCC)cc1O [CBD, 2-[(1R,6R)-3-methyl-6-prop-1-en-2-ylcyclohex-2-en-1-yl]-5-pentylbenzene-1,3-diol]
GAPDH is the normalizer
  GAPDH relative expression: 1.00
[1]
  PK3CB relative expression: 0.10
  PK3CD relative expression: 0.08
[2]
  AKT1 relative expression: 0.10
  AKT2 relative expression: 0.54
  AKT3 relative expression: 0.00
  IGF1 relative expression: 0.00
  PK3CA relative expression: 0.03
  PK3R1 relative expression: 0.04
[3]
  BRCA2 relative expression: 0.16
  MDM2 relative expression: 0.04
  TP53 relative expression: 0.22
Normalized for GAPDH, Heat sock protein
  HSP90AA1 relative expression: 0.42
[4]
  NFKB1 relative expression: 0.04
  NFKB2 relative expression: 0.15
  REL relative expression: 0.11
  RELA relative expression: 0.06
  RELB relative expression: 0.26
  RHOA relative expression: 0.34
  RHOB relative expression: 0.04
[5]
  BRAF relative expression: 0.22
  E2F1 relative expression: 0.15
  E2F3 relative expression: 0.08
  E2F4 relative expression: 0.19
  EGF relative expression: 0.00
  EGFR relative expression: 0.21
  ELK1 relative expression: 0.09
  ERBB2 relative expression: 0.02
  GRB2 relative expression: 0.13
  HBEGF relative expression: 0.13
  KRAS relative expression: 0.09
  MAP2K1 relative expression: 0.00
  MAP2K2 relative expression: 0.08
  MAPK1 relative expression: 0.07
  MAPK3 relative expression: 0.01
  RAF1 relative expression: 0.01
  RB1 relative expression: 0.06
  SOS1 relative expression: 0.06
[6]
  TGFB2 relative expression: 0.08
  TGFB3 relative expression: 0.00
  TGFBR1 relative expression: 0.02
[7]
  SMAD2 relative expression: 0.06
  SMAD3 relative expression: 0.18
  SMAD4 relative expression: 0.07
  TGFA relative expression: 0.64
  TGFB1 relative expression: 0.06
  TGFBR2 relative expression: 0.00
[8]
  FIGF relative expression: 0.11
  VEGFA relative expression: 0.02
  VEGFB relative expression: 0.06
  VEGFC relative expression: 0.03
[9]
  BCL2L1 relative expression: 0.26
  BCL2 relative expression: 0.00
  BIRC5 relative expression: 0.11
[10]
  CCNA2 relative expression: 0.01
  CCNB1 relative expression: 0.37
  CCND1 relative expression: 0.11
  CCND2 relative expression: 0.00
  CCNE1 relative expression: 0.10
  CCNE2 relative expression: 0.12
  CDC42 relative expression: 0.05
  CDK2 relative expression: 0.15
  CDK4 relative expression: 0.25
  CDKN1A relative expression: 0.04
  CDKN1B relative expression: 0.11
  CDKN2A relative expression: 0.26
  CDKN2B relative expression: 0.42
  CDKN2C relative expression: 0.03
  CDKN2D relative expression: 0.04
[11]
  IL6 relative expression: 0.00
  JAK1 relative expression: 0.27
  JAK2 relative expression: 0.01
  JAK3 relative expression: 0.01
  STAT1 relative expression: 0.11
  STAT2 relative expression: 0.04
  STAT3 relative expression: 0.06
  STAT6 relative expression: 0.79
  STATSB relative expression: 0.03
Normalized for GAPDH, invasion
  MMP1 relative expression: 0.00
  MMP2 relative expression: 0.07
  MMP3 relative expression: 0.00
  MMP7 relative expression: 0.01
  MMP9 relative expression: 0.01
  PTGS2 relative expression: 0.00
  RAC1 relative expression: 0.11
  RAC2 relative expression: 0.01
[12]
  KIT relative expression: 0.00
  NOTCH1 relative expression: 0.02
  SRC relative expression: 0.03
